# Laboratory results published in US20210379214A1, “Phospholipid-Free Small Unilamellar Vesicles (PFSUVS) for Drug Delivery” (The University of British Columbia, priority 2018, published 2021).
# What was measured:
# EMT6 cells [1] = assay: Cellular uptake in the presence of apolipoprotein; type: cell-based, murine; conditions: 4 hours, apolipoprotein 5, 20, 100 μg/ml
# Experimental: EMT6 cells were seeded in 12 wells on cover slip over night to be confluent. […] After treatment, the cover slips were fixed with 10% and were then mounted on slide with a DAPI contained fluorescence shield. The slides were imaged under a confocal microscopy. Doxorubicin signal in those images were then quantified by Cellprofiler™.
# EMT6 cells [2] = assay: Cellular uptake of DOX by confocal laser scanning microscopy; type: cell-based, murine; conditions: for Mean Fluorescence Intensity: 5 μg DOX/ml
# Experimental: (§1) EMT6 (murine breast tumor) and the resistant variant, EMT6/AR1 cells overexpressing P-glycoprotein were purchased from the National Cancer Institute (Bethesda, Md.). EMT6 cells were cultured in DMEM medium with 10% FBS, penicillin (100 U/ml) and streptomycin (100 μg/ml) at 37° C. with 5% CO2.
# Cellular uptake of DOX was imaged by confocal laser scanning microscopy (CLSM). EMT6 cells were seeded on a cover slip placed in a 24-well plate (1×10^5 cell/well) for 24 h prior to the study. […] The medium was removed and the cells were washed with PBS twice before fixation with 10% of formaldehyde at room temperature for 20 min. The cover slip was then washed for another 2 times with PBS and mount on a glass slide with fluorescence shield containing DAPI. The cells were imaged under a Zeiss™ confocal microscope (LSM 700™) and the image was analyzed using the CellProfiler™ (Version 3.0) software.
# [3] = tested on: EMT6 murine breast cancer cells; assay: In vitro cytotoxicity (MTT assay); type: cell-based
# Experimental: as §1
# EMT6 cells were seeded on a 96-well plate (1000 cells/well). Wells with medium only were used as blank. […] Two days later, 5 μl of MTT solution (5 mg/ml) was added to each well, followed by 4-h incubation. The medium was removed and 100 μl DMSO was added into each well, followed by incubation at room temperature for 15 min. Absorbance at 540 nm in each well was then measured by a plate reader. The cell viability was calculated as (Abs−Abblank)/(Ab100−Abblank)×100%, where Abs is the Absorbance540 nm for the experimental group, Abblank is the Absorbance540 nm of sample without cells and Ab100 is the Absorbance540 nm of sample without treatment.
structure (smiles),measurement,setting,value
"COc1cccc2c1C(=O)c1c(O)c3c(c(O)c1C2=O)C[C@@](O)(C(=O)CO)C[C@@H]3O[C@H]1C[C@H](N)[C@H](O)[C@H](C)O1 [DOX, doxorubicin]",effect of increasing concentrations of apolipoproteins on internalization,EMT6 cells [1],no influence
same,change of DOX cellular uptake in the presence of serum versus serum free,"EMT6 cells [2]; EMT6 cells, 4 hr",did not significantly change
same,Mean Fluorescence Intensity,"EMT6 cells [2]; EMT6 cells, 4 hr, 10% Serum",0.247 ± 0.021
same,Mean Fluorescence Intensity,"EMT6 cells [2]; EMT6 cells, 4 hr, Without Serum",0.258 ± 0.014
same,increased cellular uptake relative to PFSUVs-DOX and PLD,EMT6 cells [2]; absence of serum,~15 fold
same,"in vitro potency, fold more effective than PFSUVs-dox",[3],4 fold
same,IC50,"[3]; MTT, curve fitting",0.025 µg/mL
